Experiments:
[1] = system: PC12 cells; assay: Phase microscopy of AuF-induced morphological changes in PC12 cells; type: cell-based; details: 2 µM AuF 30 min, washed, 150 µM SDA, 37° C., 4 hrs; listed as SDA
Protocol: PC12 cells were treated with AuF with or without SD-444. Morphological changes were visualized 4 hr later (magnification x200).
(FIG. 7A) Control untreated PC12 cells (FIG. 7B). PC12 cells were treated with AuF (2 µM; 30 min) lose their morphology and become rounded, as compared to untreated cells. […] Cells were treated with AuF (2 µM) for 30 min, washed and then SDA was added at 25 µM or 100 µM. Cells were visualized 4 hr later (magnification, 100 × and 400 x).
C) Phase microscopy studies: The ability of SD-444 to rescue cells from oxidative stress was tested by exposing the PC12 to 2 µM auranofin for 30 min, and after washing incubated with 250 µM SD-444 at 37° C. for additional 4 hrs.
B) Phase microscopy studies: The ability of SDA to rescue the cells from oxidative stress was tested by exposing the PC12 to auranofin 2 µM for 30 min with or without 150 µM SDA. AuF was washed after 30 min and 150 µM SDA was added and allowed to incubate at 37° C. for additional 4 hrs.

[2] = system: human neuroblastoma cells (SH-SY5Y); assay: Viability of SH-SY5Y cells after auranofin (AuF) challenge, methylene blue staining; type: cell-based; details: SH-SY5Y pre-treated with 5 µM AuF 30 min, washed, compound added, viability 24 h later
Protocol: Viability of cells pre-treated with 5 µM AuF for 30 min, washed and later exposed to increasing concentrations of SD-444, was determined 24 h later.
A) The anti-apoptotic activity of SD-444 was tested on human neuronal cells SH-SY5Y. The cells were challenged by auranofin (AuF) that induces cellular stress by selectively blocking the thioredoxin reductase activity.
SH-SY5Y cells were plated on 96-well plates and treated with AuF in different concentrations for 30 min. Then the cells were washed with PBS and treated as indicated. Twenty-four hours later, the cells were fixed with glutaraldehyde in final concentration of 0.5% for 10 min. Cells were washed 3 times with DDW dried overnight, and washed once with borate buffer (0.1 M, pH 8.5). The fixed cells were stained with 200 µl of 1% methylene blue dissolved in borate buffer for 1 h. After extensive washing and drying, the color was extracted with 200 µl of 0.1 M HCl for 1 h at 37° C. and absorbance was read in spectrophotometer at 630 nm.

## CC(=O)NC(CS)C(=O)NC(Cc1cccc(O)c1O)C(N)=O (centres unmarked) [SDA-341, Acetyle-Cys-2,3 dihydroxyphenylalanine-amide]
[1]
  morphology of AuF-treated PC12 cells: normal morphology
[2]
  neuronal cell-viability after AuF: increase viability
